According to patent US6872719B1, “Phenylalanine enamide derivatives” (Celltech R & D Limited, priority 2002, dated 2005):

Target: T1, α4β1 integrin (Homo sapiens, UniProt P05556+P13612)
T1 construct: 2.5×10^5 Jurkat cells in the presence or absence of titrated test compounds; endogenous in cells; host or cells: Jurkat cells
Assay: α4β1 Integrin-Dependent Jurkat Cell Adhesion to VCAM-Ig
Type: cell-based
Settings: inhibition of Jurkat cell adhesion to 2d VCAM-1-hFc
Protocol: α4β1 Integrin-Dependent Jurkat Cell Adhesion to VCAM-Ig
96 well NUNC plates were coated with F(ab)2 fragment goat anti-human IgG Fcγ-specific antibody [Jackson Immuno Research 109-006-098: 100 μl at 2 μg/ml in 0.1M NaHCO3, pH 8.4], overnight at 4°. The plates were washed (3×) in phosphate-buffered saline (PBS) and then blocked for 1 h in PBS/1% BSA at room temperature on a rocking platform. After washing (3× in PBS) 35 ng/ml of purified 2d VCAM-1-hFc diluted in PBS/1% BSA was added and the plates left for 60 minutes at room temperature on a rocking platform. The plates were washed (3× in PBS) and the assay then performed at 37° for 30 min in a total volume of 200 μl containing 2.5×10^5 Jurkat cells in the presence or absence of titrated test compounds.
Each plate was washed (2×) with medium and the adherent cells were fixed with 100 μl methanol for 10 minutes followed by another wash. 100 μl 0.25% (w/v) Rose Bengal (Sigma R4507) in PBS was added for 5 minutes at room temperature and the plates washed (3×) in PBS. 100 μl 50% (v/v) ethanol in PBS was added and the plates left for 60 min after which the absorbance (570 nm) was measured.

T1 sequence (P13612 34-1032): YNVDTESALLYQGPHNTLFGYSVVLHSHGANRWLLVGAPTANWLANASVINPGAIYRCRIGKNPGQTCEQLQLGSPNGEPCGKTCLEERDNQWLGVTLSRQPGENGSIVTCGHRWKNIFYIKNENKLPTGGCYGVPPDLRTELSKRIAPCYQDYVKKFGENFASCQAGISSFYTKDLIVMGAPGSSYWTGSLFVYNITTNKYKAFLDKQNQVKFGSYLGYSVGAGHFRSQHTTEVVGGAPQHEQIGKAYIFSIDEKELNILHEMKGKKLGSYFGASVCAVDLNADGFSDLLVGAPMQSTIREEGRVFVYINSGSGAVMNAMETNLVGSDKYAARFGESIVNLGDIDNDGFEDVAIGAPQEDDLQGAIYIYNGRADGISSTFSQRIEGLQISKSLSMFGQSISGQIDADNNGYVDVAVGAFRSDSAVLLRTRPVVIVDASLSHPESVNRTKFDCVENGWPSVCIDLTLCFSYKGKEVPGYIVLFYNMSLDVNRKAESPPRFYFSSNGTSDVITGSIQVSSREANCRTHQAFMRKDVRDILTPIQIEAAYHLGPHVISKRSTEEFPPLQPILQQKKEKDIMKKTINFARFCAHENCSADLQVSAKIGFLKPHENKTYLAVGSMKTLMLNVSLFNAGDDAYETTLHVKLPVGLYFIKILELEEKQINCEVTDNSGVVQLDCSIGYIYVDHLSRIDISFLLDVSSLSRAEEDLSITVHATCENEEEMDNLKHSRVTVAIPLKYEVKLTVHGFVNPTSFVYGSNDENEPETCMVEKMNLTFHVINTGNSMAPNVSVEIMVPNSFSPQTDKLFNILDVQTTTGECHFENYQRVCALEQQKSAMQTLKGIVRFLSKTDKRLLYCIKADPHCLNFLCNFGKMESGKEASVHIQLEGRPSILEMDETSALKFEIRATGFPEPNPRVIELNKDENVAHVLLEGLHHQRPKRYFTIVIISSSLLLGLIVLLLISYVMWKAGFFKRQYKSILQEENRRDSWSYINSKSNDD
T1 sequence (P05556 21-798): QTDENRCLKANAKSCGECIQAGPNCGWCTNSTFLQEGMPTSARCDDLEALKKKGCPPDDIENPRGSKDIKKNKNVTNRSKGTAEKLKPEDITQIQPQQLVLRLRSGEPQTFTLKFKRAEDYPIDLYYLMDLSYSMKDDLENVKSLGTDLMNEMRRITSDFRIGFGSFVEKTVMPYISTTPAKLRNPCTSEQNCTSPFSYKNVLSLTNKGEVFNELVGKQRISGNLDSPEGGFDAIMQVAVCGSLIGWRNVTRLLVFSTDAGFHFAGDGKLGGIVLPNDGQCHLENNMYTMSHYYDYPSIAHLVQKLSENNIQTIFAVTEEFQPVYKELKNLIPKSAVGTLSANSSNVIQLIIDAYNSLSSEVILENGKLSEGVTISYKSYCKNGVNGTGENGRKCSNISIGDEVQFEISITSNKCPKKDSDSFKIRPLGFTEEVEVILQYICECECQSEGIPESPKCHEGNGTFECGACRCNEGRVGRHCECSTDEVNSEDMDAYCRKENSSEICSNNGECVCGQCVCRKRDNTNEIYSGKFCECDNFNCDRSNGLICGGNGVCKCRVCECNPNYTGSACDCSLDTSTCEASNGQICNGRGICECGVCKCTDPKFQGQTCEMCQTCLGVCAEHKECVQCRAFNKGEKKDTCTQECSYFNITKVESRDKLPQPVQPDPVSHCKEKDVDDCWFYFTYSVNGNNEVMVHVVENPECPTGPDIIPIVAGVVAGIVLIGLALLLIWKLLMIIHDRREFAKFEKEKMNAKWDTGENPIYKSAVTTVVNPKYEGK

O=C(Nc1ccc(C[C@H](NC2=C(Br)C(=O)C23CCCCC3)C(=O)OCCO)cc1)c1c(Cl)cncc1Cl [Example 1, 2-Hydroxyethyl (2S)-2-(2-bromo-3-oxo-spiro[3,5]non-1-en-1-ylamino)-3-{4-[(3,5-dichlorolsonicotinoyl)amino]phenyl}propanoate]
IC50: 4 nM
